In PubChem BioAssay AID1963448 (Molecular Pharmacology Branch, DTP, NCI, 2024):

Tested on: 616215-338-R-J1-PDC complex spheroid growth, % test/control
Test: Anticancer human tumor 616215-338-R-J1-PDC patient-derived colon adenocarcinoma cell line growth inhibition [Asc]
Details: for IC50: curve of first compound; for viability, T/C: stronger effect = lower value; active = viability on the fitted dose curve at most 10% of control; inactive = the rest
Experimental: Multicellular complex tumor spheroid response to apoptosis pathway targeting inhibitors Alrizomadlin, Pelcitoclax, and Dasminapant in combination with a variety of drugs and investigational agents in selected tumor cell lines
The MDM2 inhibitor alrizomadlin, the Bcl-2/Bcl-xL inhibitor pelcitoclax, and the IAPs inhibitor dasminapant were evaluated both individually and in combination with standard of care and investigational anticancer small molecules within a complex spheroid model of solid tumors. . Complex spheroids include a stromal component modeled by human endothelial cells (HUVEC) and fibroblasts modeled by human mesenchymal stem cells (MSCs). The concentration ranges selected for each drug and investigational agent were based upon clinically achievable concentrations if the clinical Cmax of the agent was known.
Compounds. The drugs and investigational agents: alrizomadlin (APG-115; NSC831270), pelcitoclax (APG-1252; NSC835773), dasminapant (APG-1387;NSC834197), TAK-243 (NSC785004), copanlisib (NSC809693), olaparib (NSC753686), talazoparib (NSC767125), cobimetinib (NSC 768068), eltanexor (KPT-8602, NSC 794443), abemaciclib (NSC 768073), sotorasib (NSC818433), adagrasib (NSC 831453), MRTX-1133 (NSC 836407), Iadademestat (ORY1001, NSC 806812), and RMC-4630 (NSC839698), were obtained from the NCI Developmental Therapeutics Program Chemical Repository. The FDA-approved anticancer drug set is available from the Developmental Therapeutics Program at https://dtp.cancer.gov/organization/dscb/obtaining/available plates.htm. […] The stock solutions were prepared in dimethyl sulfoxide (DMSO, Sigma-Aldrich, St. Louis, MO, cat. D2650) at 800-fold the tested concentration and stored at -70 degrees C prior to their use. All drugs and investigational agents were tested over a range starting from a high concentration at or near the clinical Cmax and decreasing in half-log increments. If the clinical Cmax for an agent had not been determined, the highest concentration tested was 10 microM.
The patient-derived cancer (PDC) cell lines include five colon adenocarcinomas: 186277-243-T-J2-PDC, 616215-338-R-J1-PDC, 439559-082-T-J2-PDC, 463943-066-T-J2-PDC, and 519858-162-T-J1-PDC; three pancreatic carcinomas: 323965-272-R-J2-PDC, 521955-158-R6-J3-PDC, and 521955-158-R2-J5-PDC; two uterine sarcomas: 327498-152-R-J2-PDC and 993429-296-R-J1-PDC; two rhabdomyosarcomas: 755483-174-R-J1-PDC and 772245-204-R-J1-PDC; two soft tissue sarcomas: 126254-015-R-J1-PDC and 494315-158-R-J1-PDC; two malignant fibrous histiocytomas: 317291-083-R-J1-PDC and 596521-263-R-J1-PDC; two breast carcinomas: 171881-019-R-J1-PDC and 885512-296-R-J2-PDC; and one ovarian carcinoma: 6556581-035-R-J-PDC were obtained from the NCI PDMR, (https://pdmr.cancer.gov). The established cell lines HSSY-2 synovial sarcoma (RRID:CVCL 8719), SYO-1 synovial sarcoma (RRID:CVCL_7146), MPNST malignant peripheral neural sheath tumor were obtained from the Sloan Kettering Institute. The following established cell lines were purchased from the American Type Culture Collection (ATCC, Manassas, VA), Sor the received from the NCI repository:, PANC-1 pancreatic carcinoma (CRL-1469, RRID:CVCL_0480), OVCAR-5 ovarian carcinoma (RRID:CVCL_1628), OVCAR-8 ovarian carcinoma (RRID:CVCL_1629), , MCF-7 breast carcinoma (CRL-12584, RRID:CVCL_0031), MDA-MB-231 breast carcinoma (CRL-12532, RRID:CVCL_0062), NCI-H1876 small cell lung carcinoma (CRL-5902, RRID:CVCL_1503), NCI-H510A small cell lung carcinoma (HTB-184, RRID:CVCL_1565), NCI-H1417 (CRL-5869, RRID:CVCL_1469), and NCI-H196 small cell lung carcinoma (CRL-5823, RRID:CVCL_1509). Dr. Peter Houghton (Greehey Children's Cancer Research Institute, University of Texas Health Science Center, San Antonio, TX) provided Rh-18 rhabdomyosarcoma (RRID:CVCL_1659). Pooled donor human umbilical vein endothelial cells (HUVEC, Lonza, cat. CC-2519) and human mesenchymal stem cells (hMSC, Lonza, cat. PT-2501) were purchased from Lonza (Walkersville, MD).
Cell Culture. […]

[1] = second compound 0.1 µM, first compound 0.000316 µM
[2] = second compound 0.1 µM, first compound 0.001 µM
[3] = second compound 0.1 µM, first compound 0.00316 µM
[4] = second compound 0.1 µM, first compound 0.01 µM
[5] = second compound 0.1 µM, first compound 0.0316 µM
[6] = second compound 0.1 µM, first compound 0.1 µM
[7] = second compound 0.316 µM, first compound 0.000316 µM
[8] = second compound 0.316 µM, first compound 0.001 µM
[9] = second compound 0.316 µM, first compound 0.00316 µM
[10] = second compound 0.316 µM, first compound 0.01 µM
[11] = second compound 0.316 µM, first compound 0.0316 µM
[12] = second compound 0.316 µM, first compound 0.1 µM
[13] = second compound 1 µM, first compound 0.000316 µM
[14] = second compound 1 µM, first compound 0.001 µM
[15] = second compound 1 µM, first compound 0.00316 µM
[16] = second compound 1 µM, first compound 0.01 µM
[17] = second compound 1 µM, first compound 0.0316 µM
[18] = second compound 1 µM, first compound 0.1 µM
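Note: spheroids exposed to agents for seven days before readout.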

NC1CCC(NC2CC2c2ccccc2)CC1 (configuration not stated) + CNC(C)C(=O)NC1CN(S(=O)(=O)c2cccc(S(=O)(=O)N3CCC4CCC(C(=O)NC(c5ccccc5)c5ccccc5)N4C(=O)C(NC(=O)C(C)NC)C3)c2)CCC2CCC(C(=O)NC(c3ccccc3)c3ccccc3)N2C1=O
inactive: viability, T/C (second compound 0.00316 µM, first compound 0.000316 µM) 101% | viability, T/C (second compound 0.00316 µM, first compound 0.001 µM) 94.2% | viability, T/C (second compound 0.00316 µM, first compound 0.00316 µM) 73.6% | viability, T/C (second compound 0.00316 µM, first compound 0.01 µM) 93.9% | viability, T/C (second compound 0.00316 µM, first compound 0.0316 µM) 103% | viability, T/C (second compound 0.00316 µM, first compound 0.1 µM) 91% | viability, T/C (second compound 0.01 µM, first compound 0.000316 µM) 96.7% | viability, T/C (second compound 0.01 µM, first compound 0.001 µM) 93.9% | viability, T/C (second compound 0.01 µM, first compound 0.00316 µM) 95.7% | viability, T/C (second compound 0.01 µM, first compound 0.01 µM) 100% | viability, T/C (second compound 0.01 µM, first compound 0.0316 µM) 95.2% | viability, T/C (second compound 0.01 µM, first compound 0.1 µM) 98% | viability, T/C (second compound 0.0316 µM, first compound 0.000316 µM) 92% | viability, T/C (second compound 0.0316 µM, first compound 0.001 µM) 89.8% | viability, T/C (second compound 0.0316 µM, first compound 0.00316 µM) 89.9% | viability, T/C (second compound 0.0316 µM, first compound 0.01 µM) 82.8% | viability, T/C (second compound 0.0316 µM, first compound 0.0316 µM) 96.1% | viability, T/C (second compound 0.0316 µM, first compound 0.1 µM) 95.3% | viability, T/C [1] 100% | viability, T/C [2] 87% | viability, T/C [3] 92.2% | viability, T/C [4] 99% | viability, T/C [5] 98.7% | viability, T/C [6] 89.8% | viability, T/C [7] 103% | viability, T/C [8] 94.2% | viability, T/C [9] 88.4% | viability, T/C [10] 97.5% | viability, T/C [11] 102% | viability, T/C [12] 90.7% | viability, T/C [13] 103% | viability, T/C [14] 91% | viability, T/C [15] 95.4% | viability, T/C [16] 72.9% | viability, T/C [17] 98.5% | viability, T/C [18] 84.7%
> 100 nM: IC50 (second compound 0.00316 µM) | IC50 (second compound 0.01 µM) | IC50 (second compound 0.0316 µM) | IC50 (second compound 0.1 µM) | IC50 (second compound 0.316 µM) | IC50 (second compound 1 µM)

NC1CCC(NC2CC2c2ccccc2)CC1 (configuration not stated) + Cc1c(S(C)(=O)=O)c(-c2cc(F)cc(N3CCN(c4ccc(NS(=O)(=O)c5ccc(NC(CCN6CCC(C(=O)OCCCP(=O)(O)O)CC6)CSc6ccccc6)c(S(=O)(=O)C(F)(F)F)c5)cc4)CC3)c2)c(-c2ccc(Cl)cc2)n1C(C)C
< 0.316 nM: IC50 (second compound 3.16 µM) | IC50 (second compound 10 µM)
inactive: viability, T/C [1] 85.7% | viability, T/C [2] 83% | viability, T/C [3] 89% | viability, T/C [4] 85.8% | viability, T/C [5] 83.2% | viability, T/C [6] 81.7% | viability, T/C [7] 86.5% | viability, T/C [8] 79.6% | viability, T/C [9] 78.3% | viability, T/C [10] 78.7% | viability, T/C [11] 79.5% | viability, T/C [12] 79% | viability, T/C [13] 73.5% | viability, T/C [14] 68.1% | viability, T/C [15] 64.8% | viability, T/C [16] 62.5% | viability, T/C [17] 61.8% | viability, T/C [18] 60.8% | viability, T/C (second compound 3.16 µM, first compound 0.000316 µM) 37.5% | viability, T/C (second compound 3.16 µM, first compound 0.001 µM) 40.5% | viability, T/C (second compound 3.16 µM, first compound 0.00316 µM) 36.6% | viability, T/C (second compound 3.16 µM, first compound 0.01 µM) 32% | viability, T/C (second compound 3.16 µM, first compound 0.0316 µM) 31.2% | viability, T/C (second compound 3.16 µM, first compound 0.1 µM) 34.7% | viability, T/C (second compound 10 µM, first compound 0.000316 µM) 24.5% | viability, T/C (second compound 10 µM, first compound 0.001 µM) 22.4% | viability, T/C (second compound 10 µM, first compound 0.00316 µM) 21.8% | viability, T/C (second compound 10 µM, first compound 0.01 µM) 24% | viability, T/C (second compound 10 µM, first compound 0.0316 µM) 20% | viability, T/C (second compound 10 µM, first compound 0.1 µM) 21.5%
> 100 nM: IC50 (second compound 0.1 µM) | IC50 (second compound 0.316 µM) | IC50 (second compound 1 µM)
